The supplement of paper PMC9663587

What was measured:
[1] = compound: C=CC(=O)Nc1ccc(C(=O)Nc2[nH]nc3c2CN(C(=O)N[C@H](CN(C)C)c2ccccc2)C3(C)C)cc1 [YKL-5-124]; assay: increase in dead-cell fraction, 72 h; higher = more death;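 further: breast cancer cell lines in 384-well plates, stained with Hoechst plus LIVE/DEAD far red dye and imaged, cells above an LDR intensity threshold counted dead, Hoechst-negative corpses included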
[2] = compound: CC(=O)c1c(C)c2cnc(Nc3ccc(N4CCN(CCOCCOCCOCCNC(=O)COc5cccc6c5C(=O)N(C5CCC(=O)NC5=O)C6=O)CC4)cn3)nc2n(C2CCCC2)c1=O [BSJ-03-123]; assay: as above
[3] = compound: CC(=O)c1c(C)c2cnc(Nc3ccc(N4CCNCC4)cn3)nc2n(C2CCCC2)c1=O; assay: as above
[4] = compound: CCN1CCN(Cc2ccc(Nc3ncc(F)c(-c4cc(F)c5nc(C)n(C(C)C)c5c4)n3)nc2)CC1; assay: as above
[5] = compound: T1, CCOc1cc2ncc(C#N)c(Nc3ccc(OCc4ccccn4)c(Cl)c3)c2cc1NC(=O)/C=C/CN(C)C [Neratinib/HKI272]; assay: as above
[6] = compound: CCc1cnn2c(NCc3ccc[n+]([O-])c3)cc(N3CCCC[C@H]3CCO)nc12; assay: as above
[7] = compound: CN(C)C(=O)c1cc2cnc(Nc3ccc(N4CCNCC4)cn3)nc2n1C1CCCC1 [LEE011/Ribociclib]; assay: as above
[8] = compound: CN(C)C/C=C/C(=O)Nc1ccc(C(=O)N2CCC[C@@H](Nc3ncc(Cl)c(-c4c[nH]c5ccccc45)n3)C2)cc1 [THZ531]; assay: as above
[9] = compound: CN(C)C/C=C/C(=O)Nc1ccc(C(=O)Nc2cccc(Nc3ncc(Cl)c(-c4c[nH]c5ccccc45)n3)c2)cc1 [THZ1]; assay: as above
[10] = compound: T2, CN1CC[C@H](c2c(O)cc(O)c3c(=O)cc(-c4ccccc4Cl)oc23)[C@H](O)C1 [Flavopiridol]; assay: as above
[11] = compound: T1, Neratinib/HKI272; assay: GR value, 72 h; higher = faster growth (1 = untreated, <0 = killing);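 further: breast cancer and non-malignant breast epithelial lines, nine half-log doses, viable cells counted by Hoechst and LIVE/DEAD dye imaging versus time-zero plates and DMSO controls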
[12] = compound: T2, Flavopiridol; assay: as above

SUM159
increase in dead-cell fraction ([1]; 0.001 µM): 0.08 | increase in dead-cell fraction ([1]; 0.003162 µM): 0.19 | increase in dead-cell fraction ([1]; 0.01 µM): 0.247 | increase in dead-cell fraction ([1]; 0.03162 µM): 0.231 | increase in dead-cell fraction ([1]; 0.1 µM): 0.221 | increase in dead-cell fraction ([1]; 0.3162 µM): 0.273 | increase in dead-cell fraction ([1]; 1 µM): 0.246 | increase in dead-cell fraction ([1]; 3.162 µM): 0.332 | increase in dead-cell fraction ([1]; 10 µM): 0.436 | increase in dead-cell fraction ([2]; 0.001 µM): -0.0023 | increase in dead-cell fraction ([2]; 0.003162 µM): 0.0027 | increase in dead-cell fraction ([2]; 0.01 µM): -0.003 | increase in dead-cell fraction ([2]; 0.03162 µM): 0.0063 | increase in dead-cell fraction ([2]; 0.1 µM): 0.0055 | increase in dead-cell fraction ([2]; 0.3162 µM): 0.0076 | increase in dead-cell fraction ([2]; 1 µM): 0.0134 | increase in dead-cell fraction ([2]; 3.162 µM): 0.0322 | increase in dead-cell fraction ([2]; 10 µM): 0.28 | increase in dead-cell fraction ([3]; 0.0003162 µM): 0 | increase in dead-cell fraction ([3]; 0.001 µM): 0.0001 | increase in dead-cell fraction ([3]; 0.003162 µM): -0.0023 | increase in dead-cell fraction ([3]; 0.01 µM): -0.0027 | increase in dead-cell fraction ([3]; 0.03162 µM): -0.009 | increase in dead-cell fraction ([3]; 0.1 µM): -0.0094 | increase in dead-cell fraction ([3]; 0.3162 µM): -0.0078 | increase in dead-cell fraction ([3]; 1 µM): -0.0049 | increase in dead-cell fraction ([3]; 3.162 µM): -0.0004 | increase in dead-cell fraction ([4]; 0.001 µM): -0.0002 | increase in dead-cell fraction ([4]; 0.003162 µM): -0.0043 | increase in dead-cell fraction ([4]; 0.01 µM): -0.0052 | increase in dead-cell fraction ([4]; 0.03162 µM): -0.0042 | increase in dead-cell fraction ([4]; 0.1 µM): 0.0006 | increase in dead-cell fraction ([4]; 0.3162 µM): 0.0029 | increase in dead-cell fraction ([4]; 1 µM): 0.0118 | increase in dead-cell fraction ([4]; 3.162 µM): 0.0126 | increase in dead-cell fraction ([4]; 10 µM): 0.447 | increase in dead-cell fraction ([5]; 0.0003162 µM): -0.005 | increase in dead-cell fraction ([5]; 0.001 µM): -0.0025 | increase in dead-cell fraction ([5]; 0.003162 µM): -0.0041 | increase in dead-cell fraction ([5]; 0.01 µM): -0.0075 | increase in dead-cell fraction ([5]; 0.03162 µM): -0.0087 | increase in dead-cell fraction ([5]; 0.1 µM): -0.0118 | increase in dead-cell fraction ([5]; 0.3162 µM): -0.0133 | increase in dead-cell fraction ([5]; 1 µM): -0.01 | increase in dead-cell fraction ([5]; 3.162 µM): -0.004 | increase in dead-cell fraction ([6]; 0.0001 µM): -0.0009 | increase in dead-cell fraction ([6]; 0.0003162 µM): -0.0008 | increase in dead-cell fraction ([6]; 0.001 µM): -0.0012 | increase in dead-cell fraction ([6]; 0.003162 µM): 0.0013 | increase in dead-cell fraction ([6]; 0.01 µM): 0.0076 | increase in dead-cell fraction ([6]; 0.03162 µM): 0.299 | increase in dead-cell fraction ([6]; 0.1 µM): 0.226 | increase in dead-cell fraction ([6]; 0.3162 µM): 0.238 | increase in dead-cell fraction ([6]; 1 µM): 0.246 | increase in dead-cell fraction ([7]; 0.001 µM): -0.0013 | increase in dead-cell fraction ([7]; 0.003162 µM): 0.0006 | increase in dead-cell fraction ([7]; 0.01 µM): 0.0082 | increase in dead-cell fraction ([7]; 0.03162 µM): 0.013 | increase in dead-cell fraction ([7]; 0.1 µM): 0.0057 | increase in dead-cell fraction ([7]; 0.3162 µM): 0.0121 | increase in dead-cell fraction ([7]; 1 µM): 0.0033 | increase in dead-cell fraction ([7]; 3.162 µM): 0.0075 | increase in dead-cell fraction ([7]; 10 µM): 0.0212 | increase in dead-cell fraction ([8]; 0.0001 µM): 0.0035 | increase in dead-cell fraction ([8]; 0.0003162 µM): -0.0023 | increase in dead-cell fraction ([8]; 0.001 µM): -0.002 | increase in dead-cell fraction ([8]; 0.003162 µM): -0.003 | increase in dead-cell fraction ([8]; 0.01 µM): 0.0062 | increase in dead-cell fraction ([8]; 0.03162 µM): -0.0033 | increase in dead-cell fraction ([8]; 0.1 µM): -0.0055 | increase in dead-cell fraction ([8]; 0.3162 µM): -0.0016 | increase in dead-cell fraction ([8]; 1 µM): 0.0161 | increase in dead-cell fraction ([9]; 0.0001 µM): -0.005 | increase in dead-cell fraction ([9]; 0.0003162 µM): -0.0055 | increase in dead-cell fraction ([9]; 0.001 µM): -0.0004 | increase in dead-cell fraction ([9]; 0.003162 µM): -0.0006 | increase in dead-cell fraction ([9]; 0.01 µM): 0.001 | increase in dead-cell fraction ([9]; 0.03162 µM): 0.0024 | increase in dead-cell fraction ([9]; 0.1 µM): 0.0084 | increase in dead-cell fraction ([9]; 0.3162 µM): 0.0412 | increase in dead-cell fraction ([9]; 1 µM): 0.212 | increase in dead-cell fraction ([10]; 0.0001 µM): -0.0034 | increase in dead-cell fraction ([10]; 0.0003162 µM): -0.0008 | increase in dead-cell fraction ([10]; 0.001 µM): -0.0034 | increase in dead-cell fraction ([10]; 0.003162 µM): -0.0003 | increase in dead-cell fraction ([10]; 0.01 µM): -0.0024 | increase in dead-cell fraction ([10]; 0.03162 µM): 0.012 | increase in dead-cell fraction ([10]; 0.1 µM): 0.0436 | increase in dead-cell fraction ([10]; 0.3162 µM): 0.205 | increase in dead-cell fraction ([10]; 1 µM): 0.208 | GR value ([11]; 0.0003162 µM): 1.01 GR | GR value ([11]; 0.001 µM): 1.02 GR | GR value ([11]; 0.003162 µM): 1.02 GR | GR value ([11]; 0.01 µM): 0.994 GR | GR value ([11]; 0.03162 µM): 0.96 GR | GR value ([11]; 0.1 µM): 0.927 GR | GR value ([11]; 0.3162 µM): 0.851 GR | GR value ([11]; 1 µM): 0.705 GR | GR value ([11]; 3.162 µM): 0.507 GR | GR value ([12]; 0.0001 µM): 1.01 GR | GR value ([12]; 0.0003162 µM): 0.998 GR | GR value ([12]; 0.001 µM): 0.973 GR | GR value ([12]; 0.003162 µM): 0.925 GR | GR value ([12]; 0.01 µM): 0.941 GR | GR value ([12]; 0.03162 µM): 0.885 GR | GR value ([12]; 0.1 µM): 0.631 GR | GR value ([12]; 0.3162 µM): 0.132 GR | GR value ([12]; 1 µM): -0.0516 GR
